Experimental data reported in ChEMBL document CHEMBL3608262, “Lepidotol A from Mesua lepidota Inhibits Inflammatory and Immune Mediators in Human Endothelial Cells” (J Nat Prod, 2015).
pIC50: −log10 of the molar value. In brackets after ≈: the same amount, converted by molar mass. Activity calls are given as the source filed them. No cut-off for these calls is given here.

How the values were obtained:
[1] = Inhibition of vesperlysine-type advanced glycation end products formation using bovine serum albumin after 24 hrs by microtiter plate assay; type: functional
[2] = Inhibition of pentosidine-type advanced glycation end products formation using bovine serum albumin after 24 hrs by microtiter plate assay; type: functional
HUVEC [3] = test: Antiinflammatory activity in HUVEC assessed as inhibition of TNFalpha-induced VCAM1 expression after 1 hr by flow cytometry analysis; type: functional, cell-based; conditions: Homo sapiens
HUVEC [4] = test: Antiinflammatory activity in HUVEC assessed as inhibition of TNFalpha-induced VCAM1 expression at 10 uM after 1 hr by flow cytometry analysis; type: functional; conditions: Homo sapiens
HUVEC [5] = test: Antiinflammatory activity in HUVEC assessed as inhibition of TNFalpha-induced ICAM1 expression at 10 uM after 1 hr by flow cytometry analysis; type: functional; conditions: Homo sapiens
HUVEC [6] = test: Antiinflammatory activity in HUVEC assessed as inhibition of IFNgamma-induced HLA-E expression at 10 uM after 1 hr by flow cytometry analysis; type: functional; conditions: Homo sapiens
HUVEC [7] = test: Antiinflammatory activity in HUVEC assessed as inhibition of MICA expression at 10 uM after 1 hr by flow cytometry analysis; type: functional, cell-based; conditions: Homo sapiens
HUVEC [8] = test: Antiinflammatory activity in HUVEC assessed as inhibition of TNFalpha-induced E-selectin expression at 10 uM after 1 hr by flow cytometry analysis; type: functional, cell-based; conditions: Homo sapiens
HUVEC [9] = test: Induction of ICAM1 expression in HUVEC after 1 hr by flow cytometry analysis; type: cell-based; conditions: human
HUVEC [10] = test: Cytotoxicity against TNFalpha-stimulated HUVEC at 10 uM after 6 hrs by MTT assay; type: cell-based; conditions: human
HUVEC [11] = test: Antiinflammatory activity in HUVEC assessed as inhibition of HLA-I expression at 10 uM after 1 hr by flow cytometry analysis; type: functional, cell-based; conditions: Homo sapiens
HUVEC [12] = test: Induction of E-selectin expression in HUVEC after 1 hr by flow cytometry analysis; type: cell-based; conditions: human
HUVEC [13] = test: Antiinflammatory activity in HUVEC assessed as inhibition of IFNgamma-induced HLA-II expression at 10 uM after 1 hr by flow cytometry analysis; type: functional; conditions: Homo sapiens
HUVEC [14] = test: Antiinflammatory activity in HUVEC assessed as inhibition of HLA-E expression at 10 uM after 1 hr by flow cytometry analysis; type: functional, cell-based; conditions: Homo sapiens
HUVEC [15] = test: Induction of VCAM1 expression in HUVEC after 1 hr by ELISA; type: cell-based; conditions: human

SMILES | IC50 [1] | IC50 [2] | pIC50 (HUVEC [3]) | inhibition at 10 µM (HUVEC [4]) | inhibition at 10 µM (HUVEC [5]) | inhibition at 10 µM (HUVEC [6]) | inhibition (HUVEC [7]) | inhibition (HUVEC [8]) | Activity (HUVEC [9]) | Activity (HUVEC [10]) | inhibition (HUVEC [11]) | Activity (HUVEC [12]) | inhibition at 10 µM (HUVEC [13]) | inhibition (HUVEC [14]) | Activity (HUVEC [15])
N=C(N)NN [PIMAGEDINE] | 700 µg/mL (≈ 9.45 mM) | 150 µg/mL (≈ 2.02 mM) | – | – | – | – | – | – | – | – | – | – | – | – | –
CC(C)=CCC1(CC=C(C)C)C(=O)c2c(-c3ccccc3)cc(=O)oc2C(C(=O)C(C)C)=C1O | – | – | 4.99 | ≤ 52% | ≤ 23% | ≤ 95% | Active | inactive | Non-toxic | Non-toxic | inactive | Non-toxic | ≤ 95% | Active | Non-toxic
